Values of other authors, collected in patent US6384084B2, “Histochrome and its therapeutic use in ophthalmology” (Tikhookeansky Institut Bioorganicheskoi Khimii …, priority 1998, dated 2002).

Columns and labels:
[1] = patients, 0.5% solution
[2] = rabbits, 0.5% solution, subconjunctival and parabulbar

CCc1nc(C)ccc1O [Emoxipin]
Resorption of intraocular hemorrhages (injection of a 1% solution): facilitates the resorption of intraocular hemorrhages
Adverse effect in the course of therapy (monitoring of blood coagulation required): liable to cause reccurrent hemorrhages

CCc1c(O)c(O)c2c(c1O)C(=O)C(O)=C(O)C2=O [echinochrome, 2,3,5,6,8-pentahydroxy-7-ethyl-1,4-naphthoquinone]
Pain at the time of administration [1]: patients experienced acute pain at the time of administration
Effect on epithelization of the cornea and inflammatory processes in eye burns [2]: able to facilitate epithelization of the cornea at early stages of the treatment of eye burns and to alleviate inflammatory processes in the eye
